Columns and labels:
Experiment in all cases: Example B1 herbicidal action, post-emergence, 96-cell seed trays, climatic chamber
Format in all cases: in vivo
[1] = system: Solanum nigrum (SOLNI); settings: Application post-emergence, 1000 mg/l spray equivalent to 1000 g/ha, evaluated after 9 days (100=total damage to plant, 0=no damage to plant)
Experimental: (§1) Seeds of a variety of test species were sown in sterilised standard soil in seed trays each having 96 cells. After cultivation for 8 to 9 days cultivation (post-emergence) under controlled conditions in a climatic chamber (cultivation at 23/17° C., day/night; 13 hours light; 50-60% humidity), the plants were treated with an aqueous spray solution of 1000 mg/l of the active ingredient dissolved in 10% DMSO (dimethyl sulfoxide, CAS RN 67-68-5) as a solvent, equivalent to 1000 g/ha. The plants were grown in the climatic chamber after application at (24/19° C., day/night; 13 hours light; 50-60% humidity) and watered twice daily. After 9 days until the test was evaluated (100=total damage to plant, 0=no damage to plant)

[2] = system: Stellaria media (STEME); settings: Application post-emergence, 1000 mg/l spray equivalent to 1000 g/ha, evaluated after 9 days (100=total damage to plant, 0=no damage to plant)
Experimental: as §1

[3] = system: Amaranthus retroflexus (AMARE); settings: Application post-emergence, 1000 mg/l spray equivalent to 1000 g/ha, evaluated after 9 days
Experimental: as §1

[4] = system: Nasturtium officinale (NAAOF); parameters: scale not given here; settings: Application post-emergence, 1000 mg/l spray equivalent to 1000 g/ha, evaluated after 9 days (100=total damage to plant, 0=no damage to plant)
Experimental: as §1

Structure (SMILES) | damage to plant, Solanum nigrum (SOLNI) [1] | damage to plant, Stellaria media (STEME) [2] | damage to plant, Amaranthus retroflexus (AMARE) [3] | damage to plant, Nasturtium officinale (NAAOF) [4]
CC(=O)Oc1c(-c2ccccc2OC(F)(F)F)c(=O)[nH]c2nccnc12 [Compound B8] | 2 | 3 | 1 | 3
CC(=O)Oc1c(-c2c(Cl)cccc2Cl)c(=O)[nH]c2nccnc12 [Compound B10] | 0 | 0 | 8 | 6
CCC(=O)Oc1c(-c2c(Cl)cccc2Cl)c(=O)[nH]c2nccnc12 [Compound B11] | 0 | 1 | 8 | 3
CC(=O)Oc1c(-c2c(Cl)cc(C(F)(F)F)cc2Cl)c(=O)[nH]c2nccnc12 [Compound B15] | 0 | 2 | 0 | 7
CC(C)(C)C(=O)Oc1c(-c2ccccc2OC(F)(F)F)c(=O)[nH]c2nccnc12 [Compound B17] | 2 | 0 | 0 | 0
CC(=O)Oc1c(-c2c(C)cc(C)cc2C)c(=O)[nH]c2nccnc12 [Compound B33] | 0 | 3 | 5 | 5
Cc1ccc(Cl)c(-c2c(OC(=O)C(C)(C)C)c3nccnc3[nH]c2=O)c1F [Compound B37] | 0 | 5 | 0 | 0
CC(C)C(=O)Oc1c(-c2cc(C(F)(F)F)ccc2Cl)c(=O)[nH]c2nccnc12 [Compound B38] | 0 | 0 | 4 | 4
O=C(Oc1c(-c2c(F)ccc(F)c2Cl)c(=O)[nH]c2nccnc12)c1ccc([N+](=O)[O-])cc1 [Compound B40] | 0 | 1 | 6 | 0
CC(C)(C)C(=O)Oc1c(-c2c(Cl)cc(C(F)(F)F)cc2Cl)c(=O)[nH]c2nccnc12 [Compound B41] | 2 | 1 | 2 | 2
CCn1c(=O)c(-c2ccc(F)cc2Cl)c(OC(=O)C(C)C)c2nccnc21 [Compound C3] | 5 | 6 | 0 | 7
CC(C)C(=O)Oc1c(-c2ccc(F)cc2Cl)c(=O)n(C)c2nccnc12 [Compound C5] | 2 | 8 | 7 | 7
CCn1c(=O)c(-c2ccc(Cl)cc2Cl)c(OC(C)=O)c2nccnc21 [Compound C6] | 5 | 9 | 8 | 8
COCCn1c(=O)c(-c2ccc(Cl)cc2Cl)c(OC(C)=O)c2nccnc21 [Compound C9] | 3 | 2 | 0 | 2
CCn1c(=O)c(-c2c(F)ccc(F)c2Cl)c(OC(=O)C(C)C)c2nccnc21 [Compound C11] | 5 | 8 | 9 | 8
CCn1c(=O)c(-c2c(F)ccc(F)c2Cl)c(OC(C)=O)c2nccnc21 [Compound C13] | 2 | 8 | 8 | 8
C=CCn1c(=O)c(-c2c(F)ccc(F)c2Cl)c(OC(C)=O)c2nccnc21 [Compound C14] | 4 | 8 | 7 | 8
COCCn1c(=O)c(-c2c(F)ccc(F)c2Cl)c(OC(=O)C(C)C)c2nccnc21 [Compound C15] | 1 | 5 | 0 | 6
CC(C)n1c(=O)c(-c2c(F)ccc(F)c2Cl)c(OC(=O)C(C)(C)C)c2nccnc21 [Compound C19] | 3 | 6 | 0 | 4
CCn1c(=O)c(-c2c(F)ccc(F)c2Cl)c(OC(=O)C(C)(C)C)c2nccnc21 [Compound C21] | 0 | 8 | 8 | 8
C=CCCn1c(=O)c(-c2ccccc2OC(F)(F)F)c(OC(C)=O)c2nccnc21 [Compound C22] | 2 | 5 | 1 | 8
CC(C)n1c(=O)c(-c2ccccc2OC(F)(F)F)c(OC(=O)C(C)(C)C)c2nccnc21 [Compound C23] | 4 | 0 | 0 | 0
CC(=O)Oc1c(-c2ccccc2OC(F)(F)F)c(=O)n(Cc2ccccc2)c2nccnc12 [Compound C24] | 3 | 3 | 0 | 4
C=CCn1c(=O)c(-c2ccccc2OC(F)(F)F)c(OC(=O)C(C)(C)C)c2nccnc21 [Compound C25] | 0 | 2 | 0 | 0
CCn1c(=O)c(-c2ccccc2OC(F)(F)F)c(OC(=O)C(C)(C)C)c2nccnc21 [Compound C26] | 0 | 2 | 0 | 0
CCn1c(=O)c(-c2ccccc2OC(F)(F)F)c(OC(C)=O)c2nccnc21 [Compound C27] | 6 | 5 | 7 | 7
CCC(=O)Oc1c(-c2ccccc2OC(F)(F)F)c(=O)n(C)c2nccnc12 [Compound C28] | 2 | 7 | 2 | 7
Cn1c(=O)c(-c2ccccc2OC(F)(F)F)c(OC(=O)C(C)(C)C)c2nccnc21 [Compound C29] | 4 | 0 | 0 | 2
C=CCn1c(=O)c(-c2c(Cl)cccc2Cl)c(OC(=O)CC)c2nccnc21 [Compound C30] | 4 | 8 | 8 | 8
